From US6080871A, “Sulfonamides and sulfamides as H3 receptor antagonists” (James Black Foundation Limited, priority 1996, dated 2000)

What was measured:
H3 receptor = target: T1, H3 receptor (Cavia porcellus, UniProt Q9JI35); test: H3 receptor bioassay (functional assay), guinea pig ileal longitudinal muscle myenteric plexus; format: cell-based; conditions: electrically stimulated guinea pig ileum; for Kb: antagonism of R-(α)-methylhistamine E/[A] curve, Schild's methods, variance ±0.15 log units, read-out: pKB (functional assay) (converted)
T1 construct: the longitudinal muscle layer and adhering myenteric plexus was teased away; from tissue; host or cells: ileal longitudinal muscle with adhering myenteric plexus of male Dunkin-Hartley guinea pigs
Method: The biological activity of the compounds of the examples was measured using the ileal longitudinal muscle, myenteric plexus assay described by Paton and Aboo Zar (J. Physiol. 194, 13-33 (1968)). Male Dunkin-Hartley guinea pigs (250-300 g) were employed. Briefly, a 50 cm portion of ileum proximal to the caecum was removed, after discarding the terminal 20 cm. Ileal segments (3 cm) were cleaned by passing Krebs-Henseleit buffer containing 3 μM mepyramine gently through the ileum using a Pasteur pipette (size: 13.8 cm length, 0.65 cm diameter). To avoid unnecessary damage to the tissue, Krebs-Henseleit buffer was passed through the ileal segment, while it was lying horizontally on a petri dish. Therefore, the ileum was not over-distended and the buffer flowed through with ease. Each segment was then passed over a Pasteur pipette and the longitudinal muscle layer and adhering myenteric plexus was teased away using moist cotton wool, by stroking tangentially away from the mesenteric attachment. The tissues were suspended in 20 ml organ baths containing Krebs-Henseleit buffer at 37±1° C. and gassed with […]. The tissues were ligated to two parallel stainless steel wires, situated between two platinum electrodes (0.76 cm length, 0.06 cm diameter). All measurements were recorded isometrically (Grass FTO3 transducer). Following an initial loading tension of 1 g, the tissues were stimulated with electrical pulses at a frequency of 0.1 Hz and a pulse duration of 0.5msec, as described by Kosterlitz & Watt (1968). Initially, the tissues were stimulated at supramaximal (1.3 fold times maximal) voltage for a period of 30 min and then the tissues were washed and re-stimulated. A "sighter dose" of the selective histamine H3 -receptor agonist, R-(α)-methylhistamine(0.3 μM) (Arrang et al., 1987), was administered. Upon generation of response, the "sighter dose" was removed from the tissues by "washout" (6 washes over 60 min) and during this period the electrical stimulation was switched off. The tissues were then re-stimulated and allowed to stabilise prior to the addition of drug treatments, which were allocated on a randomised block basis to the organ baths. Following the incubation period, a single cumulative E/[A] curve was obtained. The experimental E/[A] curve data was expressed as the percentage inhibition of the peak height of electrically-stimulated contraction. Antagonist affinity values were calculated from the degree of rightward shift of the R-(α)-methylhistamine E/[A] curves using Schild's methods (Arunlatcshama & Schild, 1949).
(§1) Typical variance in the functional assay is ±0.15 log units. Typical variance in the binding assay is ±0.12 log units. This means that if the discrepancy between the two assays is greater than about 0.5 log units, then this difference on average is significant.

Histamine H3 = target: T2, Histamine H3 (Cavia porcellus, UniProt Q9JI35); test: Histamine H3 radioligand binding assay, [3H]-R-α-methylhistamine, guinea pig ileum longitudinal muscle myenteric plexus membranes; conditions: 3 nM [3H]-R-α-methylhistamine, 165 min, 21±3° C., Cheng Prusoff, variance ±0.12 log units; for Ki: read-out: pK1 (binding assay) (converted)
T2 construct: ileum longitudinal muscle myenteric plexus membranes; from tissue; host or cells: ileum longitudinal muscle myenteric plexus membranes of male Dunkin Hartley guinea pigs
Method: Histamine H3 Radioligand Binding Assay
Male Dunkin Hartley guinea pigs (200-300 g) were used. The small intestine was rapidly removed (cut ~5 cm from caecum and 5 cm from stomach) and placed in ice-cold 20 mM Hepes-NaOH buffer (pH7.4 at 21±3° C.). The tissue was cut into ~10 cm segments, flushed through with ice-cold 20 mM Hepes-NaOH buffer and placed in a beaker containing fresh buffer at 4° C. 10 cm segments of ileum were threaded onto a glass pipette and the longitudinal muscle myenteric plexus was peeled away from the circular muscle using damp cotton-wool. Longitudinal muscle myenteric plexus was immediately placed in ice-cold Viaspan® solution (~100 ml for tissue from 3 guinea pigs) and placed in the refrigerator for 24 hours.
Pre-soaked tissue was weighed and minced with scissors. The tissue was then homogenised in Viaspan® using a polytron (Kinematica AG; PT-DA 3020/2TS, 3×~1-2 s). 50 ml of 500 mM Tris HCl (pH6.9 at 21±3° C.) was added to the tissue and the mixture centrifuged at 39,800×g for 12 min at 4° C. The supernatant was discarded and rehomogenised in 100 ml ice-cold 20 mM Hepes-NaOH buffer (pH7.4 at 21±3° C.) using a teflon-in-glass homogeniser (setting 10; 3×). The homogenate was recentrifuged at 39,800×g and the pellet resuspended in 20 mM Hepes-NaOH buffer (pH7.4 at 21±3° C.), to a tissue concentration of 50 mg.ml^-1, using a polytron (Brinkman, PT10, 3×~1 s).
Guinea pig ileum longitudinal muscle myenteric plexus membranes (400 μl) were incubated for 165 min at 21±3° C. in a final volume of 500 μl with 20 mM Hepes-NaOH buffer containing [^3 H]-R-α-methylhistamine (50 μl; 3 nM) and competing compound. Total and non-specific binding of [^3 H]-R-α-methylhistamine were defined using 50 μl of buffer and 50 μl of 10 μM thioperamide, respectively. The assay was terminated by rapid filtration through Whatman GF/B filters, presoaked (2 hr) in 0. 1% polyethyleneimine,using a Brandell Cell Harvester. The filters were washed (3×3 ml) with ice-cold 50 mM Tris-HCl (pH6.9 at 21±3° C.), transferred into scintillation vials, 5 ml liquid scintillation cocktail was added and after 4 hours the bound radioactivity was determined by counting (4 min) in a Beckman liquid scintillation counter.
Data are analysed using GraphPad prism and the general equation for a competition curve with variable Hill slope (nH).
Y=Non-specific binding+(Total binding-Non-specific binding)/1+10^((logIC.sbsp.50^-X).n.sbsp.H^)
X is the log concentration of competing compound, Y is the binding obtained at each concentration of X, pIC50 is the concentration of the competitor required to compete for half of the specific binding.
The IC50 is converted to the K1 using the Cheng Prusoff equation, […]
IC50 is the concentration of competitor required to compete for half the specific binding, L is the radioligand concentration used, KD is the equilibrium dissociation constant for the radioligand determined by saturation experiments.
as §1

T2 sequence (Q9JI35 whole entry): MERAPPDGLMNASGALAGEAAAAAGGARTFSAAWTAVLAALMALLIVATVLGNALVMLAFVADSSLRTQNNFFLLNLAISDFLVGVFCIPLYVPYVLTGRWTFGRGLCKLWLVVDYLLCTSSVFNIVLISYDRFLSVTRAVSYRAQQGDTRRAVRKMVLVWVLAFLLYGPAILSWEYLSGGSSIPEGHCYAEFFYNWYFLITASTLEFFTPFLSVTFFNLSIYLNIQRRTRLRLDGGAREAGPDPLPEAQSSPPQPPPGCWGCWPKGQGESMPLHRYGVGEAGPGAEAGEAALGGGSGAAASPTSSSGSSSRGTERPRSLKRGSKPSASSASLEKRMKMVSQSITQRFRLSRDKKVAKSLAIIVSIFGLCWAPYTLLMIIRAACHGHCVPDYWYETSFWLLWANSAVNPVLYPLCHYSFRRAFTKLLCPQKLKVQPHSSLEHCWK
T1 sequence (Q9JI35 whole entry): as above

| Kb (H3 receptor) [nM] | Ki (Histamine H3) [nM] | pK1 (binding assay) (Histamine H3) | EC50 (H3 receptor; printed in the pKB column, read-out: p[A]50 (functional assay) (converted)) [nM] | SMILES |
| --- | --- | --- | --- | --- |
| 87.1 |  | 7.58 |  | COc1ccc(CNS(=O)(=O)NCCCCc2c[nH]cn2)cc1 [Example 48, N-[4-(4(5)-Imidazoyl)butyl]-N'-(4-methoxyphenyl)methyl-sulfamide] |
| 15.8 | 10 |  |  | O=S(=O)(CCc1ccc(Cl)cc1)NCCCCCc1c[nH]cn1 [Example 54, N-[5-(4(5)-Imidazoyl)pentyl]-2-(4-chlorophenyl)ethanesulfonamide] |
| 9.77 |  | 7.95 |  | O=S(=O)(Cc1ccc(Cl)cc1)NCCCCCCc1c[nH]cn1 [Example 11, N-[6-(4(5)-Imidazoyl)hexyl]-(4-chlorophenyl)methanesulfonamide] |
|  |  | 8.44 | 776 | C[C@H](Cc1c[nH]cn1)NS(=O)(=O)c1ccc2ccccc2c1 [Example 71, (R)-(+)-N-[2-(4(5)-Imidazoyl)-1-methyl-ethyl]-2-naphthalenesulfonamide] |
| 110 |  | 7.50 |  | O=S(=O)(NCCCCCc1c[nH]cn1)c1ccc2ccccc2c1 [Example 6, N-[5-(4(5)-Imidazoyl)pentyl]-2-naphthalenesulfonamide] |
| 155 |  | 7.42 |  | O=S(=O)(NCCCCc1c[nH]cn1)c1ccc2ccccc2c1 [Example 7, N-[4-(4(5)-Imidazoyl)butyl]-2-naphthalenesulfonamide] |
| 132 |  | 7.40 |  | O=S(=O)(NCCCCCCCc1c[nH]cn1)c1ccc2ccccc2c1 [Example 29] |
| 200 |  | 7.77 |  | O=S(=O)(NCCc1c[nH]cn1)c1ccc2ccccc2c1 [Example 1, N-[2-(4(5)-Imidazoyl)ethyl]-2-naphthalenesulfonamide] |

The remaining lines, values behind:

| SMILES | Kb (H3 receptor) [nM] | Ki (Histamine H3) [nM] | pK1 (binding assay) (Histamine H3) | EC50 (H3 receptor; printed in the pKB column, read-out: p[A]50 (functional assay) (converted)) [nM] |
| --- | --- | --- | --- | --- |
| O=S(=O)(NCCCCc1c[nH]cn1)NCCc1ccc(Cl)cc1 [Example 57, N-[4-(4(5)-Imidazoyl)butyl]-N'-2-(4-chlorophenyl)ethyl-sulfamide] | 11 | 14.5 |  |  |
| O=S(=O)(Cc1ccc(Cl)cc1)NCCCCCCCCc1c[nH]cn1 [Example 33, N-[8-(4(5)-Imidazoyl)octyl]-(4-chlorophenyl)methanesulfonamide] | 229 |  | 7.27 |  |
| O=S(=O)(NCCCCc1c[nH]cn1)NCc1ccc(Cl)c(Cl)c1 [Example 41, N-[4-(4(5)-Imidazoyl)butyl]-N'-(3,4-dichlorophenyl)methyl-sulfamide] | 3.89 | 4.27 |  |  |
| CN(CCCCc1c[nH]cn1)S(=O)(=O)N(C)Cc1ccc(Cl)cc1 [Example 68, N'-(4-Chlorophenyl)methyl-N,N'-dimethyl-N-[4-(4(5)-imidazoyl)butyl]-sulfamide] | 17 | 11.2 |  |  |
| O=S(=O)(NCCCCc1c[nH]cn1)NCC1CCCCC1 [Example 51, N-[4-(4(5)-Imidazoyl)butyl]-N'-cyclohexylmethyl-sulfamide] | 97.7 | 79.4 |  |  |
| O=S(=O)(NCCCCCCCc1c[nH]cn1)NCc1ccc(Cl)cc1 [Example 38, N-[7-(4(5)-Imidazoyl)heptyl]-N'-(4-chlorophenyl)methyl-sulfamide] | 4.27 |  | 8.15 |  |
| O=S(=O)(NCCCCCc1c[nH]cn1)NCc1ccc(I)cc1 [Example 66, N-[5-(4(5)-Imidazoyl)pentyl]-N'-(4-iodophenyl)methyl-sulfamide] | 8.71 | 7.76 |  |  |
| O=S(=O)(NCc1ccc(Br)cc1)N(CCCCc1c[nH]cn1)Cc1ccc(Br)cc1 [Example 67, N,N'-Di-[(4-bromophenyl)methyl]-N-[4-(4(5)-imidazoyl)butyl]-sulfamide] | 603 | 141 |  |  |
| O=S(=O)(Cc1ccc(Cl)cc1)NCCCCCCCc1c[nH]cn1 [Example 32, N-[7-(4(5)-Imidazoyl)heptyl]-(4-chlorophenyl)methanesulfonamide] | 43.7 |  | 7.44 |  |
| O=S(=O)(NCCCCc1c[nH]cn1)NCc1ccc(I)cc1 [Example 44, N-[4-(4(5)-Imidazoyl)butyl]-N'-(4-iodophenyl)methyl-sulfamide] | 3.24 |  | 8.68 |  |
| O=S(=O)(NCCCCc1c[nH]cn1)NCc1ccc(C(F)(F)F)cc1 [Example 47, N-[4-(4(5)-Imidazoyl)butyl]-N'-(4-(trifluoromethyl)phenyl)methyl-sulfamide] | 3.31 | 2.69 |  |  |
